We go through five compounds from ChEMBL document CHEMBL4261630.

Assay [1] is described as follows: Inhibition of Pasteurella multocida sialyltransferase 1 using Neu5Acalpha2-3GalbetapNP as substrate after 30 mins by colorimetric assay.
The target in the next assay is T1, Neuraminidase C (Streptococcus pneumoniae, UniProt A0A0B7LH44).
T1 sequence (A0A0B7LH44 whole entry): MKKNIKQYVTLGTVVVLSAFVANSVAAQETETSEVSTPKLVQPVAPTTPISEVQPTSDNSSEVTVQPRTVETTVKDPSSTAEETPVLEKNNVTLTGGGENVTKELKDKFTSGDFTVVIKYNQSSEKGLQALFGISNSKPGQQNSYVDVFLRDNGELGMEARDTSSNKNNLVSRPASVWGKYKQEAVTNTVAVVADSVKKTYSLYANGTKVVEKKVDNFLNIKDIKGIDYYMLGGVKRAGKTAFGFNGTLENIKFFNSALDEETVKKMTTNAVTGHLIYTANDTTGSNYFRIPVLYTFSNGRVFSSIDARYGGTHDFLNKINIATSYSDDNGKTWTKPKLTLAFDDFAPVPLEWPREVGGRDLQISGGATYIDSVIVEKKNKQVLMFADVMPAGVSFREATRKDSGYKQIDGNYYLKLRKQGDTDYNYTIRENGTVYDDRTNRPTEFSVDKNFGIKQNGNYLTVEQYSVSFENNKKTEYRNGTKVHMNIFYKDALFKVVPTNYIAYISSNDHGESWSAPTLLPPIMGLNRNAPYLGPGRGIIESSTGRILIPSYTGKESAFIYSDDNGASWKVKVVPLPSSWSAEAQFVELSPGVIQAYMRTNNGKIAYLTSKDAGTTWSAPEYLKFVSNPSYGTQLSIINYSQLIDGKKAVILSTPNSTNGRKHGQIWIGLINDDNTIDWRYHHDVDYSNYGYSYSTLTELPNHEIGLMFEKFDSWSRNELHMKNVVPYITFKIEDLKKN
In words: Inhibition of Streptococcus pneumoniae sialidase NanC using Neu5Acalpha2-3GalbetapNP as substrate after 30 mins by colorimetric assay.

For assay [2], the target named is T2, Neuraminidase C (Streptococcus pneumoniae) (UniProt A0A0B7LH44).
T2 sequence (whole entry): T1 sequence (A0A0B7LH44 whole entry)
The note with it: at 1 mM.

Assay [3] in a line: Inhibition of Bifidobacterium longum subsp. infantis ATCC 15697 sialidase 2 (BiNanH2) using Neu5Acalpha2-3GalbetapNP as substrate after 30 mins by colorimetric assay.
The target in assay [4] is T3, Sialidase B (Streptococcus pneumoniae serotype 4 (strain ATCC BAA-334 / TIGR4)) (UniProt Q54727).
T3 sequence (whole entry): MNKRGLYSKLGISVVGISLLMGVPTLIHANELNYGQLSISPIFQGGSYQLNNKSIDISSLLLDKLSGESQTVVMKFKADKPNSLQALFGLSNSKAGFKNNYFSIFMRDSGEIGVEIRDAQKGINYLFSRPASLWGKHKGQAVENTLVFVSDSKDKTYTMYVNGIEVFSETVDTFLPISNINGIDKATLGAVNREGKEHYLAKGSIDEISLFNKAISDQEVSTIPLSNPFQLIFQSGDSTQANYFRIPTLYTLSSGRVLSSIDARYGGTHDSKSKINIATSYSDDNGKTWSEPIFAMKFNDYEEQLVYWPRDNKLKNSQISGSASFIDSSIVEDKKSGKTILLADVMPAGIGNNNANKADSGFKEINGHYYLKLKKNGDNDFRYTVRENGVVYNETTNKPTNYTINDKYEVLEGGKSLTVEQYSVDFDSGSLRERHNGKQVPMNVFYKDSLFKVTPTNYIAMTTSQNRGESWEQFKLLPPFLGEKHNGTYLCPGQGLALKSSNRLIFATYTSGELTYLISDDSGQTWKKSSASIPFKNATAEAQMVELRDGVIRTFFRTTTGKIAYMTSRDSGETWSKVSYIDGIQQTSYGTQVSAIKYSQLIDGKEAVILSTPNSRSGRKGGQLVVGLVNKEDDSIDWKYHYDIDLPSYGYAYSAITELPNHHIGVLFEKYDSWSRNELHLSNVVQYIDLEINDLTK
Particulars: at 1 mM.

The target in assay [5] is T4, Sialidase (Clostridium perfringens) (UniProt P10481).
T4 sequence (whole entry): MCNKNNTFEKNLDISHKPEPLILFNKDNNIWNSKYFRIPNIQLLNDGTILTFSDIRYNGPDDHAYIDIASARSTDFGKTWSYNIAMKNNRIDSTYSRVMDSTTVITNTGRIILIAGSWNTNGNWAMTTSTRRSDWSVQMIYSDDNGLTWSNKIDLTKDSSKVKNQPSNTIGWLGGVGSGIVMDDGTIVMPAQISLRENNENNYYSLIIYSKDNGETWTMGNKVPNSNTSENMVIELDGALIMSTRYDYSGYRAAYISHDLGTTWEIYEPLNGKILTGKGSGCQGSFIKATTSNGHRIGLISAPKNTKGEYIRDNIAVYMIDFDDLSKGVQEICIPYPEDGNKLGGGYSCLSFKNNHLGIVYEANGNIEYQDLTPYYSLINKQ
The note with it: at 0.1 mM.

The target in assay [6] is Sialidase A (Streptococcus pneumoniae) (UniProt P62575). Particulars: at 1 mM.
In assay [7] the test system is Paenarthrobacter ureafaciens. The note with it: at 0.1 mM.
Assay [8] deals with Paenarthrobacter ureafaciens. The note with it: at 1 mM.
Assay [9] addresses Sialidase A (Streptococcus pneumoniae) (UniProt P62575). Particulars: at 0.1 mM.
In assay [10] the target is T3, Sialidase B (Streptococcus pneumoniae serotype 4 (strain ATCC BAA-334 / TIGR4)). The note with it: at 0.1 mM.
Assay [11] concerns the target Sialidase (Vibrio cholerae serotype O1 (strain ATCC 39315 / El Tor Inaba N16961)) (UniProt P0C6E9). The note with it: at 1 mM.
Assay [12] is described as follows: Inhibition of Arthrobacter ureafaciens sialidase using Neu5Acalpha2-3GalbetapNP as substrate after 30 mins by colorimetric assay. Also on record: species or system Paenarthrobacter ureafaciens.
In assay [13] the test system is Pasteurella multocida. The note with it: at 1 mM.
The target of assay [14] is T4, Sialidase (Clostridium perfringens). Particulars: at 1 mM.
Assay [15] has as its target Sialidase (Vibrio cholerae serotype O1 (strain ATCC 39315 / El Tor Inaba N16961)) (UniProt P0C6E9). The note with it: at 0.1 mM.
Assay [16] has as its system Pasteurella multocida. Particulars: at 0.1 mM.
Assay [17] concerns the target T2, Neuraminidase C (Streptococcus pneumoniae). The note with it: at 0.1 mM.
Assay [18] relates to Bifidobacterium longum subsp. infantis. The note with it: ATCC 15697, at 1 mM.
The next assay concerns the target Sialidase (Vibrio cholerae serotype O1 (strain ATCC 39315 / El Tor Inaba N16961), UniProt P0C6E9). In words: Inhibition of Vibrio cholerae sialidase using Neu5Acalpha2-3GalbetapNP as substrate after 30 mins by colorimetric assay.
For another assay, the target named is T5, Sialidase B (Streptococcus pneumoniae serotype 4 (strain ATCC BAA-334 / TIGR4), UniProt Q54727).
T5 sequence (Q54727 whole entry): T3 sequence (whole entry)
The assay can be described thus: Inhibition of Streptococcus pneumoniae NanB using Neu5Acalpha2-3GalbetapNP as substrate after 30 mins by colorimetric assay.

For a further assay, the target named is Sialidase A (Streptococcus pneumoniae, UniProt P62575). In words: Inhibition of Streptococcus pneumoniae NanA using Neu5Acalpha2-3GalbetapNP as substrate after 30 mins by colorimetric assay.
The subject of assay [19] is Bifidobacterium longum subsp. infantis. The note with it: ATCC 15697, at 0.1 mM.

The structures appear in SMILES notation. A value given as a limit tells only on which side of the number the result lay.

Sequence of Sialidase A (Streptococcus pneumoniae) (P62575 whole entry): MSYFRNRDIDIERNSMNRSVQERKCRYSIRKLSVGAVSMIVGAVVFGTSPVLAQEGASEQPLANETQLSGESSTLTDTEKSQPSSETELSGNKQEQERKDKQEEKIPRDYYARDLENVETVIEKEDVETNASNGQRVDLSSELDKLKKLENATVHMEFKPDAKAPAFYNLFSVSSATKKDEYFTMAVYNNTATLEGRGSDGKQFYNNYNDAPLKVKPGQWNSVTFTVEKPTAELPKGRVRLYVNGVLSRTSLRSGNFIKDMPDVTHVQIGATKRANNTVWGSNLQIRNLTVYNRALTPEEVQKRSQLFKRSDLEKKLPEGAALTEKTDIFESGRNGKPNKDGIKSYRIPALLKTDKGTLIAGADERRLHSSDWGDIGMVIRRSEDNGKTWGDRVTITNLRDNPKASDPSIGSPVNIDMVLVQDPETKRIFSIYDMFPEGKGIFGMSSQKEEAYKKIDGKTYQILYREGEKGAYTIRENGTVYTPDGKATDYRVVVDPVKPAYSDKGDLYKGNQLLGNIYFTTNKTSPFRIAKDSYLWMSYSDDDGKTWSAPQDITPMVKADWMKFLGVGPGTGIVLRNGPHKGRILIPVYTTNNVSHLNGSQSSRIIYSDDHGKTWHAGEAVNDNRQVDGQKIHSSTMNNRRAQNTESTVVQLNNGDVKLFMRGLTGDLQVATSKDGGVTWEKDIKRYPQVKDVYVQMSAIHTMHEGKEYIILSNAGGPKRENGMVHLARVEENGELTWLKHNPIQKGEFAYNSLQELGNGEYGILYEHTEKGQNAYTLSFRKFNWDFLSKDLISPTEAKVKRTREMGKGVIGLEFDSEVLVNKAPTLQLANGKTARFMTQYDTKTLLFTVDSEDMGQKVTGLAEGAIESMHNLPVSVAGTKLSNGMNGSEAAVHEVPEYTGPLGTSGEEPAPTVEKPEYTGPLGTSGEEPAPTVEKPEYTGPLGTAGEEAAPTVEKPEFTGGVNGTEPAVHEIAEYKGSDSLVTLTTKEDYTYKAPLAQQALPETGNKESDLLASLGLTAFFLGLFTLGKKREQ
Sequence of Sialidase A (P62575 whole entry): as above
Sequence of Sialidase (Vibrio cholerae serotype O1 (strain ATCC 39315 / El Tor Inaba N16961)) (P0C6E9 whole entry, one chain of several): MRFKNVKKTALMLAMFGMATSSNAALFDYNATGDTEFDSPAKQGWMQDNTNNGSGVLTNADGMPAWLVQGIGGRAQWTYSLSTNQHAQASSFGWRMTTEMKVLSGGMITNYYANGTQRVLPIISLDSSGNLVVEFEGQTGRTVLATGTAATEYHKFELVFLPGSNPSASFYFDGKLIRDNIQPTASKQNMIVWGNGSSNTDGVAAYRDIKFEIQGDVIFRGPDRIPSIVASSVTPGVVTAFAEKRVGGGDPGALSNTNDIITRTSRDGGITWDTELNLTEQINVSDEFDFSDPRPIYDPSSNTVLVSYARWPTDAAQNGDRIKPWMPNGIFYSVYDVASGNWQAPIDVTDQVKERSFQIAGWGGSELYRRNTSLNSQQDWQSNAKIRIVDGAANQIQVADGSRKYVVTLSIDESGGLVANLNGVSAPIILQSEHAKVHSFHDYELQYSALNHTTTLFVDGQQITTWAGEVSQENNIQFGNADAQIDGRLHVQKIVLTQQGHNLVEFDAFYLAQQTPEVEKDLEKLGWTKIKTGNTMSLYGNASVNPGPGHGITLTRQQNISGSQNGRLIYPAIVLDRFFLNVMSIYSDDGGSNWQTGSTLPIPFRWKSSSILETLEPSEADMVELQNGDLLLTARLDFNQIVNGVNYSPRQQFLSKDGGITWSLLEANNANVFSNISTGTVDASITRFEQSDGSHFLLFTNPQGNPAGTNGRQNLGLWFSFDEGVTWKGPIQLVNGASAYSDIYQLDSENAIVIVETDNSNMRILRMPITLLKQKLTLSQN
Sequence of Sialidase (P0C6E9 whole entry, one chain of several): as above

On to `CC(=O)N[C@H]1[C@H]([C@H](O)[C@H](O)Cn2cc(C[C@H](NC(=O)[C@@H](N)CCC(=O)O)C(=O)N[C@@H](CCCCN)C(=O)N[C@@H](CCC(=O)O)C(N)=O)nn2)OC(C(=O)O)=C[C@@H]1O`, for which the IC50 (in assay [1]; at Neuraminidase C; in [3]) was greater than 1000 µM in each case. This compound also came in with an inhibition in assay [2] of 9.8%.

With `CC(=O)N[C@H]1[C@H]([C@H](O)[C@H](O)CO)OC(C(=O)O)=C[C@@H]1O` [NEU5AC2EN], the inhibition in assay [4] is 31.9%; in assay [5], 72.1%; in assay [6], 99.9%; in assay [7], 95.8%; in assay [2] it was 23.7%; in assay [8] it was 99%. The inhibition in [9] came to 94.9%; in [10] it was 2.7%; in assay [11] it was 94.5%; with Pasteurella multocida [13], 9.3%; in assay [14], 92.6%; in [15], 88.2%. Also, the inhibition is 2.1% in the assay with Pasteurella multocida [16] and 6.3% in assay [17]. The IC50 in assay [1] was greater than 1000 µM; at Neuraminidase C, greater than 1000 µM; in [12], 8.1 µM.

For `CC(=O)N[C@H]1[C@H]([C@H](O)[C@H](O)CN=[N+]=[N-])OC(C(=O)O)=C[C@@H]1O`, the inhibition is 86.7% in [18]; 35.2% in [4]; 57.1% in [5]; 98.8% in assay [6]; 99.2% in [7]; 39.2% in assay [2]. For the same compound, the inhibition in [8] is 99.5%; in assay [19] it was 49.4%; in assay [9] it was 78.6%; in assay [10], 6.6%; in [11], 95.6%; in the assay on Pasteurella multocida [13], 14.9%. In addition, the inhibition in [14] turned out to be 89.3%; in assay [15], 86%; with Pasteurella multocida [16], 1.7%; in assay [17] it was 13.4%. Further, the IC50 against Sialidase was 20 µM; in assay [1] it was greater than 1000 µM; against Sialidase B it was greater than 1000 µM; against Sialidase A it was 44.3 µM; on Neuraminidase C, greater than 1000 µM; in assay [3], 100 to 1000 µM. In assay [12], this compound showed an IC50 of 0.72 µM.

As for `CC(=O)N[C@H]1[C@H]([C@H](O)[C@H](O)Cn2cc(C[C@H](N)C(=O)O)nn2)OC(C(=O)O)=C[C@@H]1O`, the inhibition stood at 14.7% in assay [18]; 35.5% in assay [4]; 17.6% in assay [5]; 84.4% in assay [6]; 42.1% in assay [7]; 47.8% in assay [2]. The inhibition was determined as 85.6% in assay [8]; 0% in assay [19]; 42.9% in assay [9]; 8.8% in assay [10]; 93.2% in assay [11]; 9.1% in the assay on Pasteurella multocida [13]. Further, the inhibition in assay [14] was found to be 69.7%; in assay [15], 82%; in the assay on Pasteurella multocida [16] it was 2.8%; in assay [17], 15.3%. Also, the IC50 was 13.5 µM against Sialidase; greater than 1000 µM in assay [1]; greater than 1000 µM at Sialidase B; 100 to 1000 µM against Sialidase A; greater than 1000 µM at Neuraminidase C; greater than 1000 µM in assay [3].

On to `CC(=O)N[C@H]1[C@H]([C@H](O)[C@H](O)Cn2cc(C[C@H](N)C(=O)N[C@H](CCC(=O)O)C(N)=O)nn2)OC(C(=O)O)=C[C@@H]1O`, for which the inhibition in assay [18] was 76.4%; in assay [4], 39%; in assay [5], 48.9%; in assay [6] it was 94.7%; in [7], 95.7%; in assay [2] it was 29.7%. Further, the inhibition in assay [8] stood at 96.2%; in [19] it was 3.3%; in [9], 61.9%; in assay [10], 12.6%; in assay [11] it was 93.5%; in the assay on Pasteurella multocida [13], 6%. Also, the inhibition in assay [14] was 84.6%; in assay [15], 85.8%; in the assay with Pasteurella multocida [16], 0.1%; in [17], 13.5%. In addition, the IC50 against Sialidase is 10.9 µM; in [1] it was greater than 1000 µM; at Sialidase B it was greater than 1000 µM; against Sialidase A, 65.6 µM; against Neuraminidase C it was greater than 1000 µM; in assay [12], 1.87 µM.

For orientation: IC50 means the midpoint of a concentration-inhibition curve. Low values mean inhibition by little substance, high ones a need for much substance. The term inhibition denotes the percentage by which the read-out fell short of the control.
